Laboratory results reported in US11692167B2, “Chemically defined serum replacements for cell culture” (Montana State University, priority 2021, dated 2023).

Assays:
[1] = test system: HFF cells; experiment: Design of Experiments two-factor interaction on HFF cells (cell numbers/mL); type: cell-based, human; settings: culture for 5 days
Text: Optimization of mixes is achieved using Design of Experiments (DoE) computer-based design and analysis protocols. Experiments are computer designed according to number of variables to test, and serial dilutions of those variables. Results are able to indicate two factor interactions. […] This enables the optimization of many interdependent nutrients using maxima and repeat application. […] Vertical axes reflect cell numbers/mL after culture for 5 days. Horizontal axes correspond to increasing concentration of indicated lipids.

[2] = spectrophotometric assay using phenolphthalein indicator to determine complexation efficiency of lipids with cyclodextrins; type: physicochemical; settings: extrapolated from free phenolphthalein absorbance
Experimental: Solubilized lipids were evaluated by spectrophotometric assay using Phenolphthalein, which is known to occupy the complexing reagents used for five hydrophobic nutrients used in chemically defined mixes. Phenolphthalein is known to be displaced from the reagent when a hydrophobic moiety is complexed, so the concentration of occupied reagents was extrapolated from coloration indicating concentration of free phenolphthalein in solution when a known amount of solubilized nutrient was dosed with a known quantity of Phenolphthalein. […] Phenolphthalein is colored when free in solution at pH 8+. It readily complexes with cyclodextrins of all types and is colorless when complexed. It is preferentially displaced by more hydrophobic molecules, so when added to a known concentration of complexed lipids, the absorbance can determine how much free phenolphthalein is present, and therefore how many free cyclodextrins are present. Since the stoichiometry of mixing is 1:1, the concentration of cyclodextrins that are free to interact with Phenolphthalein logically equals the concentration of free lipid in solution.

| SMILES | two-factor interaction with PT (palmitate) on cell numbers/mL ([1]; FIG. 8A) | two-factor interaction with α linolenic acid (ALA) on cell numbers/mL ([1]; FIG. 8B) | free lipid concentration in solution relative to critical micelle concentration (literature level) [2] |
| --- | --- | --- | --- |
| CCCCCC/C=C\CCCCCCCC(=O)O [PA, palmitoleic acid] | agonistic relationship | antagonist relationship | – |
| CCCCCCCC/C=C\CCCCCCCC(=O)O [oleic acid] | – | – | greater than the literature level |
